Experimental data published in PMC5218480 (PLoS ONE, 2017).

Tested on: MV-4-11 cells
Assay: Gene expression microarray analysis (Affymetrix PrimeView) and GSEA
Format: cell-based, human
Design: RFU PODN (11730768_x_at) / Fold change /veh PODN (11730768_x_at) / RFU LINC00158 (11744669_a_at) / Fold change /veh LINC00158 (11744669_a_at) / RFU DUSP10 (11751237_a_at) / Fold change /veh DUSP10 (11751237_a_at) / RFU ID3 (11757404_x_at) / Fold change /veh ID3 (11757404_x_at) / RFU PLEKHG5 (11737974_s_at) / Fold change /veh PLEKHG5 (11737974_s_at) / RFU LRRC4B (11730491_at) / Fold change /veh LRRC4B (11730491_at) / RFU GIMAP4 (11747438_a_at) / Fold change /veh GIMAP4 (11747438_a_at) / RFU KRT8 (11758183_x_at) / Fold change /veh KRT8 (11758183_x_at) / RFU CNN1 (11734310_a_at) / Fold change /veh CNN1 (11734310_a_at) / RFU VPS37D (11726825_at) / Fold change /veh VPS37D (11726825_at) / RFU C10orf10 (11716522_x_at) / Fold change /veh C10orf10 (11716522_x_at) / RFU KIR2DL2 /// KIR2DL4 /// KIR2DL5A /// KIR2DL5B /// KIR2DS1 /// KIR2DS2 /// KIR2DS3 /// KIR2DS4 /// KIR3DL3 /// KIR3DL3 /// KIR3DS1 (11738374_at) / Fold change /veh KIR2DL2 /// KIR2DL4 /// KIR2DL5A /// KIR2DL5B /// KIR2DS1 /// KIR2DS2 /// KIR2DS3 /// KIR2DS4 /// KIR3DL3 /// KIR3DL3 /// KIR3DS1 (11738374_at) / RFU C1QL1 (11718748_at) / Fold change /veh C1QL1 (11718748_at) / RFU TMPRSS4 (11747572_a_at) / Fold change /veh TMPRSS4 (11747572_a_at) / RFU HAMP (11756126_x_at) / Fold change /veh HAMP (11756126_x_at) / RFU RNFT2 (11725882_a_at) / Fold change /veh RNFT2 (11725882_a_at) / RFU NR4A2 (11747474_a_at) / Fold change /veh NR4A2 (11747474_a_at) / RFU ABCC12 (11746883_a_at) / Fold change /veh ABCC12 (11746883_a_at) / RFU TMEM136 (11760407_x_at) / Fold change /veh TMEM136 (11760407_x_at) / RFU CLDN22 /// WWC2 (11732394_at) / Fold change /veh CLDN22 /// WWC2 (11732394_at) / RFU HLA-DPB1 (11760878_x_at) / Fold change /veh HLA-DPB1 (11760878_x_at) / RFU SPINT1 (11716480_a_at) / Fold change /veh SPINT1 (11716480_a_at) / RFU GAP43 (11754022_s_at) / Fold change /veh GAP43 (11754022_s_at) / RFU A4GNT (11735810_at) / Fold change /veh A4GNT (11735810_at) / RFU PRB3 (11715151_x_at) / Fold change /veh PRB3 (11715151_x_at) / RFU TUBB4B (11761932_at) / Fold change /veh TUBB4B (11761932_at) / RFU CAPN14 (11732068_a_at) / Fold change /veh CAPN14 (11732068_a_at) / RFU TMCC2 (11721928_a_at) / Fold change /veh TMCC2 (11721928_a_at) / RFU IRGQ (11745062_a_at) / Fold change /veh IRGQ (11745062_a_at) / RFU FAM174B (11720279_a_at) / Fold change /veh FAM174B (11720279_a_at) / RFU TMPRSS4 (11748680_a_at) / Fold change /veh TMPRSS4 (11748680_a_at) / RFU FAM212B (11763350_a_at) / Fold change /veh FAM212B (11763350_a_at) / RFU PLEKHG5 (11743358_a_at) / Fold change /veh PLEKHG5 (11743358_a_at) / RFU ZSCAN30 (11745921_a_at) / Fold change /veh ZSCAN30 (11745921_a_at) / RFU CMKLR1 (11741424_a_at) / Fold change /veh CMKLR1 (11741424_a_at) / RFU LOC101060620 /// MAPK8IP1 (11723275_at) / Fold change /veh LOC101060620 /// MAPK8IP1 (11723275_at) / RFU SPTSSB (11747773_x_at) / Fold change /veh SPTSSB (11747773_x_at) / RFU PRSS12 (11739890_at) / Fold change /veh PRSS12 (11739890_at) / RFU BIN1 (11741810_x_at) / Fold change /veh BIN1 (11741810_x_at) / RFU WNT11 (11732464_a_at) / Fold change /veh WNT11 (11732464_a_at) / RFU C10orf10 (11716521_a_at) / Fold change /veh C10orf10 (11716521_a_at) / RFU C5orf56 (11738089_at) / Fold change /veh C5orf56 (11738089_at) / RFU CYB561 (11721691_x_at) / Fold change /veh CYB561 (11721691_x_at) / RFU ANKRD19P (11752326_a_at) / Fold change /veh ANKRD19P (11752326_a_at) / RFU OR2T12 /// OR2T33 /// OR2T8 (11738714_s_at) / Fold change /veh OR2T12 /// OR2T33 /// OR2T8 (11738714_s_at) / RFU VCAN (11748164_a_at) / Fold change /veh VCAN (11748164_a_at) / RFU JSRP1 (11732532_at) / Fold change /veh JSRP1 (11732532_at) / RFU KRTAP10-11 (11738290_x_at) / Fold change /veh KRTAP10-11 (11738290_x_at) / RFU MYO3A (11730013_a_at) / Fold change /veh MYO3A (11730013_a_at) / RFU EBF3 (11725865_a_at) / Fold change /veh EBF3 (11725865_a_at) / RFU CAMK2N1 (11719241_x_at) / Fold change /veh CAMK2N1 (11719241_x_at) / RFU C5orf56 (11738088_a_at) / Fold change /veh C5orf56 (11738088_a_at) / RFU OLFML3 (11715873_a_at) / Fold change /veh OLFML3 (11715873_a_at) / RFU LOC100653217 /// NTM (11731650_a_at) / Fold change /veh LOC100653217 /// NTM (11731650_a_at) / RFU MAPK11 (11762145_a_at) / Fold change /veh MAPK11 (11762145_a_at) / RFU FIZ1 (11724087_x_at) / Fold change /veh FIZ1 (11724087_x_at) / RFU OASL (11726364_x_at) / Fold change /veh OASL (11726364_x_at) / RFU SOX15 (11748057_x_at) / Fold change /veh SOX15 (11748057_x_at) / RFU CD79A (11719716_a_at) / Fold change /veh CD79A (11719716_a_at) / RFU HIST1H1D (11736915_at) / Fold change /veh HIST1H1D (11736915_at) / RFU CASKIN2 (11723855_a_at) / Fold change /veh CASKIN2 (11723855_a_at) / RFU LOC730098 (11760151_x_at) / Fold change /veh LOC730098 (11760151_x_at) / RFU OR4N2 (11742367_at) / Fold change /veh OR4N2 (11742367_at) / RFU PRRT2 (11749266_a_at) / Fold change /veh PRRT2 (11749266_a_at) / RFU SNX32 (11753110_a_at) / Fold change /veh SNX32 (11753110_a_at) / RFU CDHR5 (11726645_a_at) / Fold change /veh CDHR5 (11726645_a_at) / RFU RCAN1 (11760418_a_at) / Fold change /veh RCAN1 (11760418_a_at) / RFU FAM167A (11723789_a_at) / Fold change /veh FAM167A (11723789_a_at) / RFU FAM26E (11764081_at) / Fold change /veh FAM26E (11764081_at) / RFU ISYNA1 (11749810_s_at) / Fold change /veh ISYNA1 (11749810_s_at) / RFU ACY1 (11761880_at) / Fold change /veh ACY1 (11761880_at) / RFU 11764098_at / Fold change /veh 11764098_at / RFU SAMD14 (11745864_x_at) / Fold change /veh SAMD14 (11745864_x_at) / RFU NPB (11741838_a_at) / Fold change /veh NPB (11741838_a_at) / RFU TMPRSS6 (11731388_a_at) / Fold change /veh TMPRSS6 (11731388_a_at) / RFU KRTAP10-2 (11738614_at) / Fold change /veh KRTAP10-2 (11738614_at) / RFU ARHGAP8 /// PRR5-ARHGAP8 (11727945_x_at) / Fold change /veh ARHGAP8 /// PRR5-ARHGAP8 (11727945_x_at) / RFU KRTAP5-7 /// NADSYN1 (11734609_at) / Fold change /veh KRTAP5-7 /// NADSYN1 (11734609_at) / RFU RASL12 (11751679_a_at) / Fold change /veh RASL12 (11751679_a_at) / RFU CDKN2B (11736163_a_at) / Fold change /veh CDKN2B (11736163_a_at) / RFU PRF1 (11729649_at) / Fold change /veh PRF1 (11729649_at) / RFU, ZNF638 /// ZNF638-IT1 / Fold change vs veh, ZNF638 /// ZNF638-IT1 / RFU, PANK3 / Fold change vs veh, PANK3 / RFU, SH3YL1 / Fold change vs veh, SH3YL1 / RFU, ZEB2 / Fold change vs veh, ZEB2 / RFU, NRIP1 / Fold change vs veh, NRIP1 / RFU, PTTG1IP / Fold change vs veh, PTTG1IP / RFU, CAPN2 / Fold change vs veh, CAPN2 / RFU, MED14 / Fold change vs veh, MED14 / RFU, SNORA58 / Fold change vs veh, SNORA58 / RFU, C1orf63 / Fold change vs veh, C1orf63 / RFU, LRRFIP1 / Fold change vs veh, LRRFIP1 / RFU, NDUFAF7 / Fold change vs veh, NDUFAF7 / RFU, SLC12A2 / Fold change vs veh, SLC12A2 / RFU, IBTK / Fold change vs veh, IBTK / RFU, ESF1 / Fold change vs veh, ESF1 / Fold change vs veh, TMEM50B / RFU, TAOK1 / Fold change vs veh, TAOK1 / RFU, ACBD3 / Fold change vs veh, ACBD3 / RFU, TMA16 / Fold change vs veh, TMA16 / RFU, RWDD3 / Fold change vs veh, RWDD3 / RFU, BCAT1 / Fold change vs veh, BCAT1 / RFU, EDEM3 / Fold change vs veh, EDEM3 / RFU, TMEM33 / Fold change vs veh, TMEM33 / RFU, WDR75 / Fold change vs veh, WDR75 / RFU, AHCTF1 / Fold change vs veh, AHCTF1 / RFU, TFRC / Fold change vs veh, TFRC / RFU, ZDHHC17 / Fold change vs veh, ZDHHC17 / RFU, NOM1 / Fold change vs veh, NOM1 / RFU, ARL8B / Fold change vs veh, ARL8B / RFU, ZBTB11 / Fold change vs veh, ZBTB11 / RFU, TAMM41 / Fold change vs veh, TAMM41 / RFU, KIAA1704 /// LOC100996395 / Fold change vs veh, KIAA1704 /// LOC100996395 / RFU, ING1 / Fold change vs veh, ING1 / RFU, TRMT61B / Fold change vs veh, TRMT61B / RFU, FUBP3 / Fold change vs veh, FUBP3 / RFU, TP53 / Fold change vs veh, TP53 / RFU, TNKS2 / Fold change vs veh, TNKS2 / RFU, ZFP14 / Fold change vs veh, ZFP14 / RFU, ACTR2 / Fold change vs veh, ACTR2 / RFU, PPP3R1 / Fold change vs veh, PPP3R1 / RFU, PIK3R1 / Fold change vs veh, PIK3R1 / RFU, HNRNPA1 / Fold change vs veh, HNRNPA1 / RFU, RNF170 / Fold change vs veh, RNF170 / RFU, ZNF28 / Fold change vs veh, ZNF28 / RFU, RNGTT / Fold change vs veh, RNGTT / RFU, OGT / Fold change vs veh, OGT / RFU, BRD1 / Fold change vs veh, BRD1 / RFU, MARS / Fold change vs veh, MARS / RFU, ZNF655 / Fold change vs veh, ZNF655 / RFU, FAHD1 / Fold change vs veh, FAHD1 / RFU, BDP1 / Fold change vs veh, BDP1 / RFU, LRRCC1 / Fold change vs veh, LRRCC1 / RFU, ARID1A / Fold change vs veh, ARID1A / RFU, ZNF146 / Fold change vs veh, ZNF146 / RFU, ZNF330 / Fold change vs veh, ZNF330 / RFU, GPN3 / Fold change vs veh, GPN3 / RFU, C9orf123 / Fold change vs veh, C9orf123 / RFU, N4BP2L2 / Fold change vs veh, N4BP2L2 / RFU, ARFIP1 / Fold change vs veh, ARFIP1 / RFU, FAM179B / Fold change vs veh, FAM179B / RFU, BCL10 / Fold change vs veh, BCL10 / RFU, UHRF1BP1L / Fold change vs veh, UHRF1BP1L / RFU, BET1 / Fold change vs veh, BET1 / RFU, CNOT2 / Fold change vs veh, CNOT2 / RFU, ZNF268 / Fold change vs veh, ZNF268 / Fold change vs veh, ZNF507 / RFU, DGCR2 / Fold change vs veh, DGCR2 / RFU, WDSUB1 / Fold change vs veh, WDSUB1 / Fold change vs veh, HSP90B1 /// MIR3652 / RFU, ADSS / Fold change vs veh, ADSS / RFU, GK / Fold change vs veh, GK / RFU, ZNF148 / Fold change vs veh, ZNF148 / RFU, TAF9 / Fold change vs veh, TAF9 / RFU, SLC1A5 / Fold change vs veh, SLC1A5 / RFU, SLMO2 / Fold change vs veh, SLMO2 / RFU, ABCC4 / Fold change vs veh, ABCC4 / RFU, LOC101060439 /// RAP1B / Fold change vs veh, LOC101060439 /// RAP1B / RFU, RFX7 / Fold change vs veh, RFX7 / RFU, GTPBP10 / Fold change vs veh, GTPBP10 / RFU, CNEP1R1 / Fold change vs veh, CNEP1R1 / RFU, BIVM-ERCC5 /// ERCC5 / Fold change vs veh, BIVM-ERCC5 /// ERCC5 / RFU, ILF3 / Fold change vs veh, ILF3 / RFU 11762660_at / Fold change /veh 11762660_at / RFU VCAN (11757783_s_at) / Fold change /veh VCAN (11757783_s_at) / RFU DDX43 (11728927_at) / Fold change /veh DDX43 (11728927_at) / RFU KRT8 (11758188_x_at) / Fold change /veh KRT8 (11758188_x_at) / RFU NKD1 (11759106_at) / Fold change /veh NKD1 (11759106_at) / RFU SRD5A1 (11742802_a_at) / Fold change /veh SRD5A1 (11742802_a_at) / RFU TPSAB1 /// TPSB2 (11721975_s_at) / Fold change /veh TPSAB1 /// TPSB2 (11721975_s_at) / RFU GSTM3 (11746129_a_at) / Fold change /veh GSTM3 (11746129_a_at) / RFU IL23R (11737362_x_at) / Fold change /veh IL23R (11737362_x_at) / RFU TMEM51 (11727254_a_at) / Fold change /veh TMEM51 (11727254_a_at) / RFU PIWIL2 (11732686_x_at) / Fold change /veh PIWIL2 (11732686_x_at) / RFU ORM1 (11744905_x_at) / Fold change /veh ORM1 (11744905_x_at) / RFU CCDC152 (11743942_at) / Fold change /veh CCDC152 (11743942_at) / RFU ECM1 (11717891_a_at) / Fold change /veh ECM1 (11717891_a_at) / RFU IL23R (11748794_a_at) / Fold change /veh IL23R (11748794_a_at) / RFU TNFAIP8L3 (11732012_x_at) / Fold change /veh TNFAIP8L3 (11732012_x_at) / RFU MBOAT4 (11741988_at) / Fold change /veh MBOAT4 (11741988_at) / RFU 11764193_at / Fold change /veh 11764193_at / RFU TMEM53 (11763286_at) / Fold change /veh TMEM53 (11763286_at) / RFU MAGEB2 (11727129_at) / Fold change /veh MAGEB2 (11727129_at) / RFU TMEM200A (11744735_a_at) / Fold change /veh TMEM200A (11744735_a_at) / RFU CCDC152 (11751479_a_at) / Fold change /veh CCDC152 (11751479_a_at) / RFU FAM211A (11726209_a_at) / Fold change /veh FAM211A (11726209_a_at) / RFU RGS16 (11746705_a_at) / Fold change /veh RGS16 (11746705_a_at) / RFU VCAN (11755009_s_at) / Fold change /veh VCAN (11755009_s_at) / RFU RHOB (11743442_s_at) / Fold change /veh RHOB (11743442_s_at) / RFU RGS16 (11720943_a_at) / Fold change /veh RGS16 (11720943_a_at) / RFU RGS16 (11720944_at) / Fold change /veh RGS16 (11720944_at) / RFU, VPS4B / Fold change vs veh, VPS4B / RFU, CREB1 / Fold change vs veh, CREB1 / RFU, DNAJC13 / Fold change vs veh, DNAJC13 / RFU, GNAQ / Fold change vs veh, GNAQ / RFU, CDK5R1 / Fold change vs veh, CDK5R1 / RFU, ZRANB3 / Fold change vs veh, ZRANB3 / RFU, CUL4A / Fold change vs veh, CUL4A / RFU, CCNY / Fold change vs veh, CCNY / RFU, UFL1 / Fold change vs veh, UFL1 / RFU, COG3 / Fold change vs veh, COG3 / RFU, DIAPH2 / Fold change vs veh, DIAPH2 / RFU, SKA2 / Fold change vs veh, SKA2 / RFU, AFF3 / Fold change vs veh, AFF3 / RFU, LMF1 / Fold change vs veh, LMF1 / RFU, IPO11 / Fold change vs veh, IPO11 / RFU, DFFB / Fold change vs veh, DFFB / RFU, FOXP1 / Fold change vs veh, FOXP1 / RFU, CARD8 / Fold change vs veh, CARD8 / RFU, STRN3 / Fold change vs veh, STRN3 / RFU, ADK / Fold change vs veh, ADK / RFU, RASSF2 / Fold change vs veh, RASSF2 / RFU, WIPF1 / Fold change vs veh, WIPF1 / RFU, LARP1B / Fold change vs veh, LARP1B / RFU, RASA1 / Fold change vs veh, RASA1 / RFU, RB1 / Fold change vs veh, RB1 / RFU, PPFIA1 / Fold change vs veh, PPFIA1 / RFU, MAT2A / Fold change vs veh, MAT2A / RFU, CCT5 / Fold change vs veh, CCT5 / RFU, WDR92 / Fold change vs veh, WDR92 / RFU, CUX1 / Fold change vs veh, CUX1 / RFU, TTC7A / Fold change vs veh, TTC7A / RFU, TMEM135 / Fold change vs veh, TMEM135 / RFU, DEPTOR / Fold change vs veh, DEPTOR / RFU, CPM / Fold change vs veh, CPM / RFU, DNAJB6 / Fold change vs veh, DNAJB6 / RFU, CACNA2D3 / Fold change vs veh, CACNA2D3 / RFU, DTX4 / Fold change vs veh, DTX4 / RFU, TFCP2 / Fold change vs veh, TFCP2 / RFU, GMCL1 /// GMCL1P1 / Fold change vs veh, GMCL1 /// GMCL1P1 / RFU, AEBP2 / Fold change vs veh, AEBP2 / RFU, SNHG1 /// SNORD22 /// SNORD25 /// SNORD26 /// SNORD27 /// SNORD28 /// SNORD29 /// SNORD31 / Fold change vs veh, SNHG1 /// SNORD22 /// SNORD25 /// SNORD26 /// SNORD27 /// SNORD28 /// SNORD29 /// SNORD31 / Fold change (Aza/veh), C12orf56 (ProbeSet 11735607_a_at) / Fold change (ACY-1035/veh), C12orf56 (ProbeSet 11735607_a_at) / Fold change (Aza/veh), FGFR1OP (ProbeSet 11751329_s_at) / Fold change (ACY-1035/veh), FGFR1OP (ProbeSet 11751329_s_at) / Fold change (Aza/veh), VPS36 (ProbeSet 11739960_a_at) / Fold change (ACY-1035/veh), VPS36 (ProbeSet 11739960_a_at) / RFU SYPL1 (11715823_x_at) / Fold change /veh SYPL1 (11715823_x_at) / RFU IGFBP7 (11715501_s_at) / Fold change /veh IGFBP7 (11715501_s_at) / RFU REEP3 (11722064_at) / Fold change /veh REEP3 (11722064_at) / RFU IGLL1 (11728026_x_at) / Fold change /veh IGLL1 (11728026_x_at): dose or concentration left out as unconfirmed
Conditions: MV-4-11 cells, 48 hours

## Nc1ncn([C@@H]2O[C@H](CO)[C@@H](O)[C@H]2O)c(=O)n1 [azacitidine]
  Fold change /veh HAMP (11756126_x_at): 0.87
